ChEMBL document CHEMBL6096661, “Synthesis, biological evaluation and mechanism study of a novel indole-pyridine chalcone derivative as antiproliferative agent against tumor cells through dual targeting tubulin and HK2” (Eur J Med Chem, 2025)
Active and inactive are the calls of the source. The calls are words filed in the database; no cut-off is given here.

What was measured:
MDA-MB-231 = assay: Antiproliferative activity against human MDA-MB-231 cells assessed as reduction in cell proliferation incubated for 48 hrs by CCK-8 assay; type: functional, cell-based; settings: MDA-MB-231, 48 h
SW480 = assay: Antiproliferative activity against human SW480 cells assessed as inhibition of cell growth incubated for 48 hrs by CCK-8 assay; type: functional, cell-based; settings: SW480, 48 h
HCT-116 = assay: Antiproliferative activity against human HCT-116 cells assessed as inhibition of cell growth incubated for 48 hrs by CCK-8 assay; type: functional, cell-based; settings: HCT-116, 48 h
HT-1080 = assay: Antiproliferative activity against human HT-1080 cells assessed as inhibition of cell growth incubated for 48 hrs by CCK-8 assay; type: functional, cell-based; settings: HT-1080, 48 h
LoVo = assay: Antiproliferative activity against human LoVo cells assessed as inhibition of cell growth incubated for 48 hrs by CCK-8 assay; type: functional, cell-based
[1] = target: T1, Hexokinase-2 (Homo sapiens) (UniProt P52789); assay: Inhibition of human HK2 transfected in Escherichia coli BL21 (DE) incubated for 10 mins
T1 sequence (whole entry): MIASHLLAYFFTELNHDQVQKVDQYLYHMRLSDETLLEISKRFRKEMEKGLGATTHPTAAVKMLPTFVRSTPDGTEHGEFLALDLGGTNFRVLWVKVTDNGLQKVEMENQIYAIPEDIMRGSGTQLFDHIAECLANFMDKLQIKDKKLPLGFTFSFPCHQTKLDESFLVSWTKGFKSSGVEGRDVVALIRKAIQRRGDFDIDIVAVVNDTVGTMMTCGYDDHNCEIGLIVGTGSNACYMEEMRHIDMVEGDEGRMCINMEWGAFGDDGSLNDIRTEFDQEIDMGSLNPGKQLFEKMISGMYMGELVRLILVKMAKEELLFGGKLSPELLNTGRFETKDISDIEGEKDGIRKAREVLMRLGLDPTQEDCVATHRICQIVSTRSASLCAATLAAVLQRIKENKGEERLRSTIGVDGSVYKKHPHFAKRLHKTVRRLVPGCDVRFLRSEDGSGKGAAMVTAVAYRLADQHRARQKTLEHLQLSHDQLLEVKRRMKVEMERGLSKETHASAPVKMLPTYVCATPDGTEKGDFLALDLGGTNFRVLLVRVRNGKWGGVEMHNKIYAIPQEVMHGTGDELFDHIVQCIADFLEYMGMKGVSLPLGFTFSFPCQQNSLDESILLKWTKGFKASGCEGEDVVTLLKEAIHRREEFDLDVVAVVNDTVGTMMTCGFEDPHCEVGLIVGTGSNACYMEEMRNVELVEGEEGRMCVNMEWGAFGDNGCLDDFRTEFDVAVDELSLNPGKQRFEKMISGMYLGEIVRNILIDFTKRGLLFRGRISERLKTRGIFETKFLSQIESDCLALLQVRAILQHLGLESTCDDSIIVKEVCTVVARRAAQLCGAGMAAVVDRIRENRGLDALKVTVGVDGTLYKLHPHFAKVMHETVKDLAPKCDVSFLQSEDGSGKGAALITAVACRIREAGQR

Compound	IC50 (MDA-MB-231) [µM]	further results
O=C(/C=C/c1cn(S(=O)(=O)c2ccc([N+](=O)[O-])cc2)c2ccc(N3CCOCC3)cc12)c1cncnc1	1.59	IC50 (SW480): 0.716 µM; IC50 (HCT-116): 1.57 µM; IC50 (HT-1080): 0.469 µM; IC50 (LoVo): 0.679 µM
O=C(/C=C/c1cn(S(=O)(=O)c2ccc([N+](=O)[O-])cc2)c2cc(N3CCOCC3)ccc12)c1cccnc1	0.857	IC50 (SW480): 0.718 µM; IC50 (HCT-116): 1.7 µM; IC50 (HT-1080): 0.773 µM; IC50 (LoVo): 0.792 µM
Cc1ccc(S(=O)(=O)n2cc(/C=C/C(=O)c3ccncc3)c3ccccc32)cc1	8.49	
COc1cc(C(=O)/C=C/c2cn(S(=O)(=O)c3ccc([N+](=O)[O-])cc3)c3ccc(N4CCOCC4)cc23)cc(OC)c1OC	15.6	
O=C(/C=C/c1cn(S(=O)(=O)c2ccc([N+](=O)[O-])cc2)c2ccc(N3CCOCC3)cc12)c1ccccn1	0.915	IC50 (SW480): 1.08 µM; IC50 (HCT-116): 1.04 µM; IC50 (HT-1080): 0.793 µM; IC50 (LoVo): 0.74 µM
C/C(=C\c1cn(S(=O)(=O)c2ccc([N+](=O)[O-])cc2)c2ccc(N3CCOCC3)cc12)C(=O)c1cccnc1	43.1	
COc1cc(C(=O)/C=C/c2c[nH]c3ccc(N4CCOCC4)cc23)cc(OC)c1OC	11.2	
COc1cc(C(=O)/C=C/c2cn(C(=O)c3cc(OC)c(OC)c(OC)c3)c3ccc(N4CCOCC4)cc23)cc(OC)c1OC	13.8	
O=C(/C=C/c1cn(C(=O)c2ccccc2)c2ccc(N3CCOCC3)cc12)c1ccncc1	7.7	
O=[N+]([O-])c1ccc(S(=O)(=O)n2cc(C3CC(c4ccncc4)=NO3)c3cc(N4CCOCC4)ccc32)cc1 (centres undefined)	150	
COc1cc(C(=O)/C=C/c2cn(CO)c3ccc(N4CCOCC4)cc23)cc(OC)c1OC	12.5	
CC(C)(C)OC(=O)n1cc(/C=C/C(=O)c2ccncc2)c2cc(N3CCOCC3)ccc21	7.52	
COc1ccc2c(c1)c(/C=C/C(=O)c1ccncc1)cn2S(=O)(=O)c1ccc(C)cc1	3.81	
Cc1ccc(C(=O)/C=C/c2cn(S(=O)(=O)c3ccc([N+](=O)[O-])cc3)c3ccc(N4CCOCC4)cc23)c(C)n1	1.07	IC50 (SW480): 0.655 µM; IC50 (HCT-116): 1.13 µM; IC50 (HT-1080): 0.754 µM; IC50 (LoVo): 0.221 µM
c1cc(C2=NNC(c3c[nH]c4ccc(N5CCOCC5)cc34)C2)ccn1 (centres undefined)	180	
O=C(/C=C/c1cn(S(=O)(=O)c2ccccc2)c2ccc(N3CCOCC3)cc12)c1ccncc1	7.29	
O=C(/C=C/c1cn(S(=O)(=O)c2ccc([N+](=O)[O-])cc2)c2ccc(N3CCOCC3)cc12)c1ccco1	27.1	
O=C(/C=C/c1cn(S(=O)(=O)c2cccnc2)c2ccc(N3CCOCC3)cc12)c1ccncc1	2.89	
O=C(/C=C/c1cn(S(=O)(=O)c2ccc([N+](=O)[O-])cc2)c2ccc(N3CCOCC3)cc12)c1cnc2ccccc2c1	104	
O=C(/C=C/c1cn(S(=O)(=O)c2cccc3ccccc23)c2ccc(N3CCOCC3)cc12)c1ccncc1	45.4	
CC(C)(C)c1ccc(S(=O)(=O)n2cc(/C=C/C(=O)c3ccncc3)c3cc(N4CCOCC4)ccc32)cc1	7.98	
N#Cc1ccc(S(=O)(=O)n2cc(/C=C/C(=O)c3ccncc3)c3cc(N4CCOCC4)ccc32)cc1	5.48	
O=C(/C=C/c1cn(S(=O)(=O)c2ccc([N+](=O)[O-])cc2)c2ccc(N3CCOCC3)cc12)c1ncccn1	1.81	IC50 (SW480): 2.03 µM; IC50 (HCT-116): 3.46 µM; IC50 (HT-1080): 1.19 µM; IC50 (LoVo): 1.3 µM
O=C(/C=C/c1cn(S(=O)(=O)c2ccc(F)cc2)c2ccc(N3CCOCC3)cc12)c1ccncc1	5.48	
O=C(/C=C/c1cn(S(=O)(=O)c2ccc([N+](=O)[O-])cc2)c2ccc(N3CCCCC3)cc12)c1cccnc1	0.816	IC50 (SW480): 0.999 µM; IC50 (HCT-116): 3.19 µM; IC50 (HT-1080): 0.751 µM; IC50 (LoVo): 0.765 µM
O=C(/C=C/c1cn(S(=O)(=O)c2ccc(Cl)cc2)c2ccc(N3CCOCC3)cc12)c1ccncc1	7.19	
O=C(/C=C/c1cn(S(=O)(=O)c2ccc(I)cc2)c2ccc(N3CCOCC3)cc12)c1ccncc1	20.5	
COc1cc2c(c(OC)c1OC)-c1ccc(OC)c(=O)cc1[C@@H](NC(C)=O)CC2 [COLCHICINE]	2.2	inhibition [1]: inactive

Compound	IC50 (MDA-MB-231) [µM]	further results
O=C(/C=C/c1cn(Cc2ccccc2)c2ccc(N3CCOCC3)cc12)c1ccncc1	148	
Cc1ccc(S(=O)(=O)n2cc(/C=C/C(=O)c3ccncc3)c3cc(N4CCOCC4)ccc32)cc1	3.51	
Cc1ccc(C(=O)/C=C/c2cn(S(=O)(=O)c3ccc([N+](=O)[O-])cc3)c3ccc(N4CCOCC4)cc23)cn1	6.25	
O=C(/C=C/c1cn(S(=O)(=O)c2cccs2)c2ccc(N3CCOCC3)cc12)c1ccncc1	7.53	
COc1cc(C(=O)/C=C/c2cn(C)c3ccc(N4CCOCC4)cc23)cc(OC)c1OC	12.1	
Cc1[nH]c2ccc(N3CCOCC3)cc2c1/C=C/C(=O)c1cccnc1	42.5	
O=C(/C=C/c1cn(S(=O)(=O)c2ccc([N+](=O)[O-])cc2)c2ccc(N3CCOCC3)cc12)c1ccccc1	23.9	
COc1cc(C(=O)/C=C/c2cn(S(=O)(=O)c3ccc(C)cc3)c3ccc(N4CCOCC4)cc23)cc(OC)c1OC	19.9	
O=C(/C=C/c1cn(S(=O)(=O)c2ccc([N+](=O)[O-])cc2)c2ccc(N3CCSCC3)cc12)c1cccnc1	3.94	
Cc1ccc(S(=O)(=O)n2cc(C=O)c3cc(N4CCOCC4)ccc32)cc1	15.9	
CC(=O)n1cc(/C=C/C(=O)c2ccncc2)c2cc(N3CCOCC3)ccc21	7.77	
O=C(/C=C/c1cn(S(=O)(=O)Cc2ccccc2)c2ccc(N3CCOCC3)cc12)c1ccncc1	2.5	
O=C(/C=C/c1cn(S(=O)(=O)c2ccc([N+](=O)[O-])cc2)c2ccc(N3CCOCC3)cc12)c1ccc(N2CCCCC2)nc1	151	
COc1ccc(C(=O)/C=C/c2cn(S(=O)(=O)c3ccc([N+](=O)[O-])cc3)c3ccc(N4CCOCC4)cc23)c(OC)n1	416	
COc1ccc(S(=O)(=O)n2cc(/C=C/C(=O)c3ccncc3)c3cc(N4CCOCC4)ccc32)cc1	7.58	
O=C(/C=C/c1c[nH]c2ccc(N3CCOCC3)cc12)c1ccncc1	39.3	
C/C(=C\c1c[nH]c2ccc(N3CCOCC3)cc12)C(=O)c1cccnc1	56.6	
O=C(/C=C/c1cn(S(=O)(=O)c2ccc(C(F)(F)F)cc2)c2ccc(N3CCOCC3)cc12)c1ccncc1	4.81	
O=C(/C=C/c1cn(S(=O)(=O)c2ccc([N+](=O)[O-])cc2)c2ccc(N3CCOCC3)cc12)c1ccncc1	1.53	IC50 (SW480): 1.08 µM; IC50 (HCT-116): 1.85 µM; IC50 (HT-1080): 0.681 µM; IC50 (LoVo): 0.392 µM
O=C(/C=C/c1cn(S(=O)(=O)c2ccc3ccccc3c2)c2ccc(N3CCOCC3)cc12)c1ccncc1	12.8	
c1cc(C2=NOC(c3c[nH]c4ccc(N5CCOCC5)cc34)C2)ccn1 (centres undefined)	200	
COc1ccc(C(=O)/C=C/c2cn(S(=O)(=O)c3ccc([N+](=O)[O-])cc3)c3ccc(N4CCOCC4)cc23)cn1	73.9	
c1cncc(C2=NOC(c3c[nH]c4ccc(N5CCOCC5)cc34)C2)c1 (centres undefined)	90.3	
O=Cc1c[nH]c2ccc(N3CCOCC3)cc12	88.6	
O=C(/C=C/c1cn(S(=O)(=O)c2ccc(Br)cc2)c2ccc(N3CCOCC3)cc12)c1ccncc1	9.53	
O=C(/C=C/c1cn(S(=O)(=O)c2ccc([N+](=O)[O-])cc2)c2ccc(N3CCOCC3)cc12)c1nccs1	8	
O=C(/C=C/c1cn(S(=O)(=O)c2ccc([N+](=O)[O-])cc2)c2ccc(N3CCOCC3)cc12)c1cncc2ccccc12	8.7	
